The record followed here is patent publication US20080155704A1, “Methods and Compositions for Determining in vivo Activity of BiP” (King's College London, priority 2006, published 2008).

Common to all, as to format: cell-based, human
Experiment [1] has as its system indoleamine 2,3-dioxygenase (IDO). Description: Intracellular indoleamine 2,3-dioxygenase in mature dendritic cells (flow cytometry). The settings on record: mDC(BiP). On the procedure:
Purified monocytes (>85% monocytes)(1.5.10^6/flask)(Corning Costar, High Wycombe, UK) were incubated in 5 ml of tissue culture medium (TCM)(RPMI 1640 medium (Sigma, Poole, UK) supplemented with 10% heat-inactivated foetal calf serum (FCS)(Life Technologies, Paisley, UK). iDC were generated using granulocyte macrophage—colony stimulating factor (GM-CSF) (1000 U/ml)(Novartis Research Institute, Vienna, Austria) and IL-4 (500 U/ml) (R&D Systems, Oxford, UK). Monocytes were cultured for 3 or 7 days with cytokines, either alone or in the presence of rhuBiP (20 μg/ml). Mature DC were generated by addition of 500 ng/ml lipopolysaccharide (LPS) for the final 2 days of culture.
Intracellular staining was carried out with fixed cells incubated with 1% paraformaldehyde in IF buffer for 5 minutes at room temperature. The cells were washed twice with IF buffer containing 0.3% saponin for permeabilization. […] Antibodies were added at the pre-determined optimal concentration for 20 mins and then the cells were washed twice with IF buffer and analysed. […] Cells were analysed on a FACScan cytometer using Cellquest software (Becton Dickinson, Oxford, UK). […]
Immunofluorescent staining was performed, as described previously (39), on DC harvested at day 7, T cells after 4 days co-culture with DC. […] Cells were analysed on a FACScan/FACScalibur cytometers using Cellquest software (BD, Oxford, UK).
Background: A flow cytometer gives signals particle by particle.

The next experiment concerns IL-8 gene. Put plainly: Affymetrix gene array of BiP treated monocytes. The settings on record: monocytes cultured with BiP for 24 h compared with unstimulated monocytes. An excerpt:
This was confirmed in two Affymetrix™ gene arrays and also in an inflammatory cytokine gene array.
The transcription profiles of the BiP stimulated and unstimulated MO were generated using the Human GeneChip U95Av2 which simultaneously measures 12500 gene transcripts. To identify genes differentially expressed in the presence of BiP, comparisons were made between the transcription profiles obtained from the MO using the analysis software dChip version 1.2 (32).

The next experiment deals with allogeneic T cells. Put plainly: Allogeneic proliferative response to early BiP treated DC (tritiated thymidine uptake). The note with it: DC differentiated with BiP 20 μg/ml. On the procedure:
Allogeneic responses by T cells in culture with irradiated (3,000 rads) early DC (eDC), after only 3d in culture with GM-CSF and IL-4 in the presence or absence of BiP (20 μg/ml) at a ratio of 10:1 PBMC:DC (105:10^4 cells/well). The results are shown as an allogeneic proliferative response (A) following addition of neutralizing anti-IL-10 ( 1/100 dilution) antibody and (B) the pre-treatment (2 h) of monocytes (MO) with p38 inhibitor, SB203580 (SB)(10 μM) or the ERK1/2 inhibitor, PD 98059 (PD)(10 μM), prior to the addition of GM-CSF and IL-4 to the cultures. The proliferation of PBMC to early DC following (C) the addition of BiP 24 h post addition of GM-CSF and IL-4. Proliferation was measured by uptake of tritiated thymidine and recorded as counts per minute (cpm). ELISA was used to detect IL-10 (D) in the culture supernatants and (E) by 7d cultured iDC/iDC(BiP) and fully matured mDC/mDC(BiP) differentiated as described in following 7d culture in GM-CSF and IL-4 with LPS (500 ng/ml) added for the final 2d.
To neutralize IL-10 within the cultures anti-IL-10 antibody (ATCC, Rockville, USA) was added at day 0 (5 μg/ml) to GM-CSF and IL-4 treated cultures in the presence and absence of BiP (20 μg/ml). Two specific cell-permeable inhibitors of the MAPK intracellular signalling pathways were used. SB203580 (SB)(10 μM)((Calbiochem, Darmstadt, Germany) inhibits p38 MAPK, and PD98059 (PD) (10 μM)(Calbiochem), an inhibitor of MAPK extracellular signal regulated kinase (ERK), were tested. MO were pre-treated with the inhibitors for 2 h before adding GM-CSF and IL-4 in the presence or absence of BiP.

As to “BiP: 78 kD endoplasmic reticulum chaperone protein as disclosed in WO 00/21995; recombinant human protein”, the “cells containing intracellular IDO” value in experiment [1] (mean ±standard deviation, n=9 (Example 10)) is recorded as 14.1±7.1%; in experiment [1] (n=4 (Example 1)), 17.6±8.6%. Further, the IL-8 gene expression entry in the experiment on IL-8 gene is “downregulated the IL-8 gene”. In addition, the “proliferation of allogeneic T cells stimulated by iDC(BiP) or mDC(BiP)” value in the experiment with allogeneic T cells is recorded as “significantly reduced proliferation”.
